Source: patent publication US4922021A, “New alkylene diamine derivatives” (BASF Aktiensellschaft, priority 1981, dated 1990)

Columns and labels:
[1] = tested on: aconitin-induced arrhythmia; details: mouse, in vivo, po, 100 mg/kg
[2] = tested on: aconitin-induced arrhythmia; assay: animal or person; details: Mus musculus, ip, read-out: Delay in time of appearance of arrhythmia
[3] = J. Med. Chem. 6, 705 (1963); cited from earlier work
[4] = tested on: barium chloride-induced arrhythmia; assay: Barium chloride-induced arrhythmia in awake rabbits; format: in vivo; details: rabbit, in vivo, iv, 2 mg/kg
Protocol: The compounds to be tested were administered intravenously to the animals 3 minutes after treating them with barium chloride, and the effect was recorded. It was regarded as a positive protecting effect when the compound suspended the arrhythmic condition for at least 3 minutes.

[5] = tested on: myocardial contractile force, arterial blood pressure and pulse rate; assay: Inotropic effects (myocardial contractile force) in anaesthetized cats; format: in vivo; details: i.v.; for Contractility, change: basal 100
Protocol: Cats were anaesthetized with chloralose-urethane, a cannula was lead into the femoral artery, and the cannula was connected, through a Statham P 23 Db pressure sensor, to a Hellige recorder, where the arterial blood pressure and the pulse rate were recorded. The animals were respirated artifically, their chests were opened, and a strain gage was sutured on the left heart. The strain gage was connected to the Hellige recorder, and the variations in cardiac contractile force were recorded. The test compounds were administered to the animals intravenously through a cannula.

[6] = tested on: systemic and pulmonary circulation; assay: Effects on the systemic and pulmonary circulation of awake cats; format: in vivo; details: i.v., 1.0 mg/kg
Source text: Cats were anaesthetized with pentobarbital, and cannulas were placed into the carotis artery and, through the jugular vein, into the pulmonary artery. An additional cannula was placed into the jugular vein for the administration of the test compound. The cannulas were filled up with heparin in order to avoid blood clotting. Thereafter the wounds were sutured, and the cannulas were led below a bandage placed around the neck of the animal. 3 days after this operation the systemic arterial blood pressure, the pulmonary arterial pressure and the pulse rate of the awake animals were measured with a Hellige recorder, connected to the cannulas through a Statham P 23 Db type pressure transducer.

right ventricle = assay: Electrophysiological tests on isolated rabbit heart, right ventricle; set-up: species or system rabbits; details: 2 mg/l, average
Protocol: (§1) Heart of rabbits of both sexes, weighing 1-2 kg, were removed, the right and left auricles and a segment of the right ventricle were prepared and placed into a vessel filled with nutrient solution. Bipolar platinum electrodes (a stimulating electrode and a lead electrode) were placed onto the organ strips, and the electric stimulus threshold and the speed of impulse condution were measured. The effective refractory period determined on the basis of the maximum driving frequency.

left auricle = assay: Electrophysiological tests on isolated rabbit heart, left auricle; set-up: species or system rabbits; details: 2 mg/l, average
Protocol: as §1

[7] = tested on: ouabain-induced arrhythmia; assay: Ouabain-induced arrhythmia in anaesthetized dogs; format: in vivo; details: dog, in vivo, iv
Protocol: Anaesthetized dogs of both sexes were treated intravenously with an infusion of 60 /ug/kg of ouabain to provoke arrhythmia, and the arrhythmic state was maintained with an ouabain dose 60 times less than the initial. In this way a ventricular tachycardia or tachyarrhythmia lasting for more than 180 minutes was provoked. The compounds were tested during this period. The period of recovered normal sinus rhythm was recorded, and when a compound exerted protective effect for more than 30 minutes, this fact was regarded as complete protection. The tests were performed essentially according to the method of Piascik et al. [Can.
Examination of the anti-arrhythmic effect in dogs anaesthetized with a 30
of pentobarbital sodium and treated with ouabain

[8] = tested on: fibrillation threshold of the heart; assay: Determination of the fibrillation threshold in anaesthetized cats; format: in vivo; details: in vivo, iv
Source text: The chests of the cats were opened under chloralose-urethane anaesthesia a bipolar stimulating electrode was fixed onto the heart, and the heart was stimulated electrically with a frequency of 20 Hz, under continuously increasing current strength, until a fibrillo-flattern could be observed. This current strength was regarded as the fibrillation threshold of the animal.

SMILES: CCC(N)CNc1c(C)cccc1C (centres unmarked) [1-(2,6-dimethylphenyl-amino)-2-amino-butane]
- Delay in the appearance time of arrhythmia [1]: +33.0%
- change in vivo at 10 mg/kg [2]: 3%
- change in vivo at 25 mg/kg [2]: 40.8%
- change in vivo at 50 mg/kg [2]: 104%
- change in vivo at 75 mg/kg [2]: 149%

SMILES: CCN(CCN)c1c(C)cccc1C [N-ethyl-N-(2,6-dimethylphenyl)-ethylenediamine]
- hypotensive effects [3]: hypotensive effects

SMILES: Cc1cccc(C)c1NCCN [N-(2,6-dimethylphenyl)-ethylenediamine]
- hypotensive effects [3]: hypotensive effects

SMILES: Cc1cccc(C)c1N(C)CCN [N-methyl-N-(2,6-dimethylphenyl)-ethylenediamine]
- hypotensive effects [3]: hypotensive effects

SMILES: Cc1cccc(C)c1OCC(C)N.Cl (centres unmarked) [1-(2,6-Dimethylphenoxy)-2-aminopropane hydrochloride, reference compound]
- Delay in the appearance time of arrhythmia [1]: +82.0%
- Protecting effect, number of animals [4]: 4/10
- change in vivo at 5 mg/kg [2]: 3.5%
- change in vivo at 10 mg/kg [2]: 7.7%
- change in vivo at 25 mg/kg [2]: 33.3%
- change in vivo at 50 mg/kg [2]: 83.1%
- change in vivo at 75 mg/kg [2]: 162%
- Arterial blood pressure, change ([5]; 0.5 mg/kg): -45 mmHg
- Pulse/minute, change ([5]; 0.5 mg/kg): -40 min⁻¹
- Contractility, change ([5]; 0.5 mg/kg): -29%
- Arterial blood pressure, change ([5]; 1.0 mg/kg): -40 mmHg
- Pulse/minute, change ([5]; 1.0 mg/kg): -50 min⁻¹
- Contractility, change ([5]; 1.0 mg/kg): -32%
- Arterial blood pressure, change ([5]; 2.0 mg/kg): -60 mmHg
- Pulse/minute, change ([5]; 2.0 mg/kg): -50 min⁻¹
- Contractility, change ([5]; 2.0 mg/kg): -38%
- Arterial blood pressure, change ([5]; 5.0 mg/kg): -65 mmHg
- Pulse/minute, change ([5]; 5.0 mg/kg): -50 min⁻¹
- Contractility, change ([5]; 5.0 mg/kg): -57%
- Pulmonary arterial mean pressure, change ([6]; basal 13): +6 mmHg
- Arterial blood pressure, change ([6]; basal 102): -39 mmHg
- Pulse/minute, change ([6]; basal 190-200): -66 min⁻¹
- Change of the conduction time (right ventricle): +11%
- Change of the effective refractory period (right ventricle): +28%
- Change of the electric stimulus threshold (right ventricle): +14%
- Change of the conduction time (left auricle): +24%
- Change of the effective refractory period (left auricle): +32%
- Change of the electric stimulus threshold (left auricle): +36%
- Average time of partial suspension ([7]; 0.5 mg/kg): 0.5 min
- Complete suspension, number of cases ([7]; 0.5 mg/kg): 1/15
- Average time of partial suspension ([7]; 1 mg/kg): 2.6 min
- Complete suspension, number of cases ([7]; 1 mg/kg): 1/15
- Average time of partial suspension ([7]; 2 mg/kg): 2.9 min
- Complete suspension, number of cases ([7]; 2 mg/kg): 3/14
- Average time of partial suspension ([7]; 4 mg/kg): 1.4 min
- Complete suspension, number of cases ([7]; 4 mg/kg): 4/9
- Average time of partial suspension ([7]; 8 mg/kg): 10.3 min
- Complete suspension, number of cases ([7]; 8 mg/kg): 2/5
- Effect on the fibrillation threshold ([8]; 0.5 mg/kg): +9.4%
- Effect on the fibrillation threshold ([8]; 1 mg/kg): +12.9%
- Effect on the fibrillation threshold ([8]; 2 mg/kg): +24.8%
- Effect on the fibrillation threshold ([8]; 4 mg/kg): +34.0%
